The conditions of assay [1]: administered before ischemia; cited from earlier work.
Assay [2] deals with AMPK. The settings on record: cited from earlier work.
Assay [3] concerns 3T3-L1 adipocytes. The settings on record: added at an early phase of differentiation; cited from earlier work.
For assay [4] the following is noted: chronic administration; cited from earlier work.
The subject of assay [5] is hippocampal neurons. Conditions: glucose deprivation, chemical hypoxia, glutamate, amyloid beta-peptide; cited from earlier work.
Assay [6] has as its system astrocytes. Conditions: incubation of astrocytes; cited from earlier work.
Assay [7] concerns rat epitrochlearis muscles. The settings on record: 30 microU/ml insulin, treated 3.5 h previously; cited from earlier work.
The test system of assay [8] is L6 muscle cells. Description: glucose uptake (2-NBDG) in L6 myotubes. It is filed as cell-based. The protocol:
The permeate portion of GMM was tested for glucose uptake in L6 muscle cells. L6 cells were grown as monolayers in Dulbecco's modified Eagle's medium (DMEM) containing 1 mM glutamine, 1 mM pyruvate and 25 mM glucose. The medium was supplemented with 5% fetal calf serum (FCS). Experiments were undertaken in 48-well plates seeded from pre-confluent flasks with 50 000 cells per well. The cells were grown to confluence and the medium was changed to DMEM containing 0.5% FCS and 2.5 mM glucose (L6 Myo Medium) for at least 76 hrs to induce differentiation of L6 cells and formation of L6 myotubes. Myotubes were then incubated with test substances for 30 minutes—Protocol SMM, or in Dulbecco's PBS supplemented with 20 mM Hepes and 2 mM glucose without serum—Serum-free Medium (SFM) Protocol as described by Fryer et al. (Activation of glucose transport by AMP-activated protein kinase via stimulation of Nitric oxide synthase, Diabetes, 49(12), 1978-85, 2000, Fryer LGD, et al, herein incorporated by reference in its entirety.).
Next, 30 uM of 2-NBDG was added for 2 minutes at 22 C. Subsequently, cell culture medium was removed and cells were washed twice with cold DPBS. Then, cells were lysed in 0.5% SDS. Fluorescence was measured at 466/542 nm (excitation/emission) using 100 ul of cell lysate in 2 ml of water.
Cells were cultured, and treated in L6 Myo Medium (SSM)—SSM Protocol or in serum-free medium (SFM—DPBS containing 20 mM Hepes, 2 mM glucose)—SFM Protocl as described by Fryer et al. Glucose uptake was measured by adding 30 uM of 2-NBDG for 2′ at 22 C. Experiments were performed in duplicates.
L-NMMA has been used in the experiment to verify whether GMM-induced glucose transport in L6 cells is or is not inhibited by NOS inhibitors, thus mimicking AICAR-induced mechanism of increased glucose transport. […]
In FIG. 14, permeate cells were tested to determine whether permeate-induced glucose uptake could be inhibited by L-NMMA at the same concentration as that used for inhibition of the AICA effect on glucose uptake. […] Glucose uptake was measured at 22 C for 2 minutes.

Assay [9] has as its system AMPK alpha2. The settings on record: treatment for 10 weeks; cited from earlier work.

Entries after “also recorded” stand apart in the source; their conditions may differ.

On to `NC(=O)c1ncn([C@@H]2O[C@H](COP(=O)(O)O)[C@@H](O)[C@H]2O)c1N` [AICAR, 5′-aminoimidazole 4-carboxamide 1-ribonucleotide], for which the “energy metabolism and hepatic injury” value in assay [1] was “simulated the benefits of preconditioning”. In addition, in assay [2], the “increase in AMPK activity over the resting level” value was “two- to three-fold increase”. Also, in assay [3], the “differentiation of 3T3-L1 adipocytes” value is recorded as “inhibit the differentiation”. Also, in assay [4], the GLUT4 protein expression result was “enhance”; the HDL cholesterol levels result was “increased”; the “fasting concentrations of glucose and insulin” value is reported as “decreased”; the “lowering of systolic blood pressure” value is given as 14.6+/−4.3 mmHg. Moreover, in assay [4], the “oral glucose tolerance test” value is reported as “normalized” and the plasma triglyceride levels result was “significantly reduced”. Besides, the neuronal death entry in assay [5] is on record as “protected hippocampal neurons against death”. The “ketogenesis from palmitate and carnitine palmitoyltransferase I” value in [6] was “stimulate”. The “increase in glucose transport in response to insulin versus untreated control muscles” value in assay [7] was “about twofold greater”.

`CC(=O)O.CNC(=N)NCCC[C@H](N)C(=O)O` [L-NMMA, NG-methyl-L-arginine, acetate salt]: the “effect on permeate/GMM-induced glucose uptake” value in [8] (L-NMMA 300 uM, 30 minutes pre-treatment in DPBS, acetate salt) was “inhibits; also recorded: blocks”.

Take `CN(C)C(=N)N=C(N)N` [Metformin, metformin]: the “AMPK alpha2 activity in the skeletal muscle” value in assay [9] was “significantly increased”.

Take insulin: the glucose uptake increase in [8] (culture medium supplemented with 0.5% FCS (SSM)) was 100-120%; in assay [8] (serum-free medium (DPBS)), 40-50%.

The values above are taken from patent US7320806B2, “Compositions and methods for treating NIDDM and other conditions and disorders associated with AMPK regulation” (priority 2003, dated 2008).
